Source: PubChem BioAssay AID624129 (Sanford-Burnham Center for Chemical Genomics, 2012)
Calls of active or inactive are those of the source. No rule for the calls is given here.

Legend:
Experiment in all cases: potency against CXCR6 with APJ panel – cell-based, beta-arrestin, DiscoveRx, uHTS hits, dose response (AID 624129)
[1] = biological target: Beta-galactosidase (Escherichia coli) (UniProt Q8VNN2); details: CXCR6 beta-arrestin (DiscoveRx) antagonist cell assay, b-galactosidase
[2] = biological target: C-C chemokine receptor type 6 (Homo sapiens) (UniProt P51684); details: CXCR6 beta-arrestin (DiscoveRx) antagonist cell assay
[3] = biological target: C-X-C chemokine receptor type 6 (Homo sapiens) (UniProt O00574); details: CXCR6 beta-arrestin (DiscoveRx) antagonist cell assay; for inhibition: CXCR6, run 1, dose range 2, at 80 µM (top of the series)
C-X-C chemokine receptor type 6 (Homo sapiens), sequence (O00574 whole entry, looked up): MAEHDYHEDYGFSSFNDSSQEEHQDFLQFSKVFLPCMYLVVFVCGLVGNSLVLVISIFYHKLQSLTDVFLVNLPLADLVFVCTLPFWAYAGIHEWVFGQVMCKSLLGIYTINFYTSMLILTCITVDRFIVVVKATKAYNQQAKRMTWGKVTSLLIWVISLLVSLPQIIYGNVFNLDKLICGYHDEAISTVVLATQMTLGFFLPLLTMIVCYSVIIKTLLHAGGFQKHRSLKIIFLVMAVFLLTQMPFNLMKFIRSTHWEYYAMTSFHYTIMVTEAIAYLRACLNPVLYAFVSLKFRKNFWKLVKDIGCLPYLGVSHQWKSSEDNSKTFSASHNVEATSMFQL

[4] = biological target: Apelin receptor (Homo sapiens) (UniProt P35414); details: CXCR6 beta-arrestin (DiscoveRx) antagonist cell assay, APJ
[5] = dose range 1, mean IC50 across replicates
[6] = CCR6, dose range 1, mean IC50 across replicates
[7] = CXCR6, dose range 1, mean IC50 across replicates

Beta-galactosidase (Escherichia coli), sequence (Q8VNN2 whole entry, looked up): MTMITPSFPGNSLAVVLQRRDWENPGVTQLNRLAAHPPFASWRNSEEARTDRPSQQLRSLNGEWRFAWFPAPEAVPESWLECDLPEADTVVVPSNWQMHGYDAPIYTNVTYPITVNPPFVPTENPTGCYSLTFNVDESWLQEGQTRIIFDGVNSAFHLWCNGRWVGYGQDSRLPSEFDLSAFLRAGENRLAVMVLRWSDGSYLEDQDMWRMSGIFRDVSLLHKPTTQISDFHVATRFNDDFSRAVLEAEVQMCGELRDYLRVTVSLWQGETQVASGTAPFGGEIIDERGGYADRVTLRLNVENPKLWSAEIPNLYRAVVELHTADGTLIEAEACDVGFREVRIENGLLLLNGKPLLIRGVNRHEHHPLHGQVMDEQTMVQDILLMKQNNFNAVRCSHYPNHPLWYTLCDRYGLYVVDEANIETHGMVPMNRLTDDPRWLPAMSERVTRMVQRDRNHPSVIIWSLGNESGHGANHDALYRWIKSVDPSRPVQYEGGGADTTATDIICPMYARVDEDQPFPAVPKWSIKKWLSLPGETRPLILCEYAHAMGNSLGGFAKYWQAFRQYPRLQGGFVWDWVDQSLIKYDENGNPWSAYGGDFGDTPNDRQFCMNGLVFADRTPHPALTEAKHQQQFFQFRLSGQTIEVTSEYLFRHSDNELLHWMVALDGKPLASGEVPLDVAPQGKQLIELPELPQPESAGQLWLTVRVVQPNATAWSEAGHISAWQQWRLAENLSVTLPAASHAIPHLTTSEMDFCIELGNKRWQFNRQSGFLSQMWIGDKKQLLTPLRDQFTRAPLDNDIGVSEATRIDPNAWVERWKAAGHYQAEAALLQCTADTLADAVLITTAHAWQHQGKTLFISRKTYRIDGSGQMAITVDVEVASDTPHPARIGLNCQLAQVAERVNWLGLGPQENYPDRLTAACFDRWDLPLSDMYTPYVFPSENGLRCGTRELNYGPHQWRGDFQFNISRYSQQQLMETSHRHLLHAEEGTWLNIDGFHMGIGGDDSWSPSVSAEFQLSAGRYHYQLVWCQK

| SMILES | IC50 ([1]; dose range 1) | IC50 [1, 5] [µM] | IC50 ([2]; CCR6, dose range 1) [µM] | IC50 [2, 6] [µM] | IC50 ([2]; CCR6, run 2, dose range 1) [µM] | IC50 ([3]; CXCR6, dose range 1) | IC50 [3, 7] [µM] | IC50 ([3]; CXCR6, run 1, dose range 2) [µM] | IC50 ([3]; CXCR6, run 2, dose range 1) [µM] | IC50 ([3]; CXCR6, run 2, dose range 2) [µM] | IC50 ([4]; dose range 1) | IC50 [4, 5] [µM] | IC50 ([4]; run 2, dose range 1) [µM] | IC50 ([4]; run 3, dose range 1) [µM] | inhibition [3] [%] |
| --- | --- | --- | --- | --- | --- | --- | --- | --- | --- | --- | --- | --- | --- | --- | --- |
| Nc1cc(Cl)c2nonc2c1[N+](=O)[O-] | > 80 µM (inactive) | > 80 | 5.46 | 7.31 | 9.16 | 11.5 µM | 8.28 | 7.05 | 7.17 | 7.35 | 10.8 µM | 20.6 | 13.5 | 37.6 | – |
| O=C1c2sc3nc4ccccc4n3c2C(=O)N1c1ccccc1Cl | 30.8 µM | 30.8 | 16.9 | 14.9 | 12.9 | inactive | 21 | – | 15 | – | 23.5 µM | 18 | 16.9 | 13.5 | 103 |
| O=C(OCn1ncc(Cl)c(Cl)c1=O)c1cccc(C(F)(F)F)c1 | > 80 µM (inactive) | > 80 | 14 | 16.1 | 18.2 | inactive | 23.5 | – | 19 | – | 21.6 µM | 31.7 | 32.5 | 40.9 | 128 |
| CC(=O)Nc1ccc(NCC(=O)c2ccccc2)cc1 | inactive | 58.9 | 28.9 | 26.3 | 23.7 | inactive | 23.7 | – | 21.9 | – | – | 26.2 | 24.9 | 27.5 | 62 |
| C/C(=N\NC(=O)Cc1ccc(Cl)cc1)c1ccccn1 | > 80 µM (inactive) | > 80 | 3.22 | 3.45 | 3.69 | 3.73 µM | 3.75 | 3.29 | 4.52 | 3.45 | 3.41 µM | 14 | 4.94 | 33.7 | – |
| C=C1CC(COc2ccc3c(C)c(Cl)c(=O)oc3c2)(c2ccccc2)OC1=O (stereo not drawn) | > 80 µM (inactive) | > 80 | 0.174 | 1.42 | 2.66 | 3.92 µM | 3.92 | – | > 80 | – | > 80 µM (inactive) | 35.3 | 54.2 | 16.4 | 55.2 |
| O=C(Nc1nc(-c2ccccn2)cs1)c1cc(Cl)ccc1[N+](=O)[O-] | > 80 µM (inactive) | > 80 | – | > 80 | > 80 | > 80 µM (inactive) | > 80 | – | > 80 | – | – | > 80 | > 80 | > 80 | -48.8 |
| O=c1cc(CSc2ccc(Cl)cc2)nc(-c2ccccn2)[nH]1 | > 80 µM (inactive) | > 80 | 2.87 | 4.41 | 5.95 | 4.35 µM | 3.68 | 3.45 | 3.7 | 3.2 | 3.53 µM | 3.82 | 3.74 | 4.18 | – |
| C=C1C(=O)OC2C1CCC(C)=C1C(=O)C3OC3(C)C12 (stereo not drawn) | > 80 µM (inactive) | > 80 | 6.5 | 6.87 | 7.24 | 12.7 µM | 10.3 | 10.1 | 9.67 | 8.85 | 10.9 µM | 10.9 | 11.2 | 10.6 | – |
| COc1ccccc1C(=O)NNC(=S)NC(=O)c1cccs1 | > 80 µM (inactive) | > 80 | 12.2 | 12.1 | 11.9 | inactive | 15 | 9.07 | 22.8 | 10.6 | 9.86 µM | 31 | 13.8 | 69.4 | – |
| O=[N+]([O-])c1ccc(S(=O)(=O)c2ccccc2)nc1 | > 80 µM (inactive) | > 80 | – | > 80 | > 80 | > 80 µM (inactive) | > 80 | – | > 80 | – | – | > 80 | > 80 | > 80 | 19.8 |
